Where a SMILES comes first, the peptide text is derived from it. [ ]: non-standard residue; d: D form. αMeP = C[C@@]1(C(=O)O)CCCN1; Aze = O=C(O)[C@@H]1CCN1; Aib = CC(C)(N)C(=O)O
Key:
[1] = Binding affinity to immobilized amyloid beta 25-35 by Surface plasmon resonance
[2] = Protective effect against beta amyloid oligomers induced toxicity in Wistar rat neuronal cells at 100 uM; type: functional
[3] = Neurotoxicity in Wistar rat neuronal cells assessed as induction of mortality at 100 uM; type: toxicity, cell-based
[4] = Neurotoxicity in Wistar rat neuronal cells assessed as induction of mortality at 10 uM; type: toxicity, cell-based

Row | SMILES | Kd [1] | also measured
1 | CC[C@H](C)[C@H](N)C(=O)N[C@H](C(=O)N1CCC[C@@]1(C)C(=O)N[C@@H](CC(C)C)C(=O)N[C@@H](CCSC)C(N)=O)[C@@H](C)CC (H-II[αMeP]LM-NH2) | 1530 µM | –
2 | Nc1c(/N=N/c2ccc(-c3ccc(/N=N/c4cc(S(=O)(=O)O)c5ccccc5c4N)cc3)cc2)cc(S(=O)(=O)O)c2ccccc12 [CONGO RED] | 13 µM | –
3 | CC[C@H](C)[C@H](N)C(=O)N[C@H](C(=O)NCC(=O)N[C@@H](CC(C)C)C(=O)N[C@@H](CCSC)C(N)=O)[C@@H](C)CC (H-IIGLM-NH2) | – | Activity [3]: 10%; Activity [4]: 10%
4 | CC[C@H](C)[C@H](N)C(=O)N[C@H](C(=O)NCC(=O)N[C@@H](CC(C)C)C(=O)N[C@@H](CCSC)C(=O)O)[C@@H](C)CC (H-IIGLM-OH) | – | Activity [4]: 21%
5 | CC[C@H](C)[C@H](N)C(=O)N[C@H](C(=O)N1CC[C@H]1C(=O)N[C@@H](CC(C)C)C(=O)N[C@@H](CCSC)C(N)=O)[C@@H](C)CC (H-II[Aze]LM-NH2) | 4600 µM | –

Continued, in another order:

Row | Kd [1] | SMILES | also measured
6 | 2560 µM | CC[C@H](C)[C@H](N)C(=O)N[C@H](C(=O)NC(C)(C)C(=O)N[C@@H](CC(C)C)C(=O)N[C@@H](CCSC)C(N)=O)[C@@H](C)CC (H-II[Aib]LM-NH2) | Activity [2]: 24%
7 | 4490 µM | CC[C@H](C)[C@H](N)C(=O)N[C@H](C(=O)N1CCC[C@H]1C(=O)N[C@@H](CC(C)C)C(=O)N[C@@H](CCSC)C(N)=O)[C@@H](C)CC (H-IIPLM-NH2) | –
